Assay results: PubChem BioAssay (NCI)
Where “and” joins values, the source holds several entries; their conditions need not be identical. Equal entries are not always repeated.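 Test compounds were applied to cells in 96-well plates for 48 hours at 5 doses. The concentration for 50% growth inhibition is given as GI50. TGI is the concentration that stops growth completely.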

Tests used:
Experiment in all cases: NCI anticancer screen, dose series, 48 h
NCI-H460 lung = tested on: NCI-H460 lung
HOP-92 NSCLC = tested on: HOP-92 NSCLC
OVCAR-8 ovarian = tested on: OVCAR-8 ovarian
ACHN renal = tested on: ACHN renal
NCI-H522 lung = tested on: NCI-H522 lung
K-562 leukemia = tested on: K-562 leukemia
OVCAR-5 ovarian = tested on: OVCAR-5 ovarian
T-47D breast = tested on: T-47D breast
CAKI-1 renal = tested on: CAKI-1 renal
EKVX NSCLC = tested on: EKVX NSCLC
IGROV1 ovarian = tested on: IGROV1 ovarian
MCF7 breast = tested on: MCF7 breast
NCI-H23 lung = tested on: NCI-H23 lung
OVCAR-4 ovarian = tested on: OVCAR-4 ovarian
SNB-75 CNS = tested on: SNB-75 CNS
SK-OV-3 ovarian = tested on: SK-OV-3 ovarian
UO-31 renal = tested on: UO-31 renal
MDA-N = tested on: MDA-N

Structure (SMILES)	TGI (NCI-H460 lung)	TGI (HOP-92 NSCLC) [µM]	TGI (OVCAR-8 ovarian) [µM]	TGI (ACHN renal) [µM]	TGI (NCI-H522 lung)	TGI (K-562 leukemia)	TGI (OVCAR-5 ovarian) [µM]	TGI (T-47D breast) [µM]	TGI (CAKI-1 renal) [µM]	TGI (EKVX NSCLC) [µM]	TGI (IGROV1 ovarian) [µM]	TGI (MCF7 breast) [µM]	TGI (NCI-H23 lung) [µM]	TGI (OVCAR-4 ovarian) [µM]	TGI (SNB-75 CNS) [µM]	TGI (SK-OV-3 ovarian)	TGI (UO-31 renal) [µM]	GI50 (ACHN renal)	GI50 (CAKI-1 renal)	TGI (MDA-N) [µM]
c1ccc2c(c1)n1c(N3CCCC3)[n+]3ccccc3c1c1c3cccc[n+]3c(N3CCCC3)n21	> 100 µM	> 100	93.3	> 100	> 100 µM	> 100 µM	> 100	> 100	> 100	> 100	> 100	> 100	> 100	> 100	68.5	–	–	–	–	–
Cc1nsc2cc(Cl)n(C)c(=O)c12	> 100 µM	> 100	> 100	> 100	69.3 µM	> 100 µM	> 100	–	> 100	> 100	> 100	–	> 100	> 100	> 100	> 100 µM	> 100	–	–	–
COC(=O)/C=C1\C(=O)Nc2ccc(Br)cc21	5.05 µM	4.92	5.78	3.36	2.34 µM	> 28 µM	3.17	5.6	3.87	4.49	3.63	3.01	3.52	5.84	3.87	10.1 µM	5.55	–	–	–
COc1cc(CNc2ccc(C)cc2)cc(OC)c1OC	> 23.8 µM and 3.92 µM	> 100	–	> 100	0.435 µM and 0.83 µM	> 42.3 µM and 25 µM	> 100	–	> 100	> 100	> 100	–	3.08	> 100	> 100	0.825 µM and 1.3 µM	> 100	674 nM and 216 nM	235 nM and 64.1 nM	–
C=Cc1c(-c2ccccc2)cnc2[nH]c3ccccc3c12	> 50 µM	–	> 50	> 50	> 50 µM	> 50 µM	> 50	–	> 50	> 50	> 50	–	> 50	> 50	46	> 50 µM	> 50	–	–	–
COc1ccc(-n2c(C)nc3ccc(NC4OC(COC(C)=O)C(OC(C)=O)C(OC(C)=O)C4OC(C)=O)cc3c2=O)cc1 (stereo not given)	> 100 µM	–	> 100	> 100	47.5 µM	79 µM	> 100	> 100	57.3	> 100	> 100	> 100	> 100	> 100	> 100	–	> 100	–	–	> 100
C#CCNC(CCCN=C(N)N)C(=O)O (stereo not given)	> 100 µM	> 100	> 100	> 100	> 100 µM	> 100 µM	> 100	> 100	> 100	> 100	> 100	–	> 100	> 100	> 100	> 100 µM	> 100	–	–	–
O=C(CC(=O)n1nc(-c2ccccc2)c(N=Nc2ccc([N+](=O)[O-])cc2)c1-c1ccccc1)Nc1ccc(Cl)cc1	> 100 µM	52.3	> 100	19.2	> 100 µM	17.8 µM	> 100	–	99.3	> 100	> 100	–	> 100	> 100	> 100	42.3 µM	45.1	–	–	–
COC(=O)c1ccc(C)cc1C1CN=NC12Cc1c(C)cccc1C2=O (stereo not given)	> 100 µM	97	> 92.4	> 100	97.4 µM	> 100 µM	> 100	81.7	> 100	> 100	98	–	> 100	> 93.9	> 100	> 93.4 µM	> 100	–	–	> 100
COc1ccc2[nH]c(=O)cc(C)c2c1[N+](=O)[O-]	> 100 µM	> 100	> 100	> 100	> 100 µM	> 100 µM	> 100	–	> 100	> 100	> 100	–	> 100	> 100	55.7	> 100 µM	> 100	–	–	–
O=C(O)c1cc(-c2ccc3cc(O)c(O)cc3c2)ccc1O	> 12.5 µM	–	> 12.5	> 12.5	> 12.5 µM	> 12.5 µM	> 12.5	> 12.5	> 12.5	–	> 12.5	> 12.5	> 12.5	–	> 12.5	> 12.5 µM	> 12.5	–	–	> 12.5
CC[n+]1c(/C=C/c2cc(C(=O)OC)n3c2sc2ccccc23)sc2ccccc21	34.3 µM	31.6	–	36.2	30.7 µM	31.2 µM	37.3	–	–	38.9	32.9	–	–	34.2	32.5	34 µM	35.1	–	–	–
COc1cc2c(c(OC)c1OC)[C@@H]1CCCCC[C@@H]1CCC2=O	> 100 µM	> 100	> 100	> 100	> 100 µM	> 72.5 µM	> 100	–	> 100	> 100	> 100	–	> 100	> 100	> 100	> 100 µM	> 100	–	–	–
CCOC(=O)/C(=C\n1c(=O)sc2ccccc21)C(=O)c1ccccc1	> 100 µM	–	> 100	> 100	> 100 µM	> 100 µM	> 100	> 100	64.7	> 100	> 100	> 100	> 100	> 100	> 100	> 100 µM	> 100	–	–	–
COc1cc2c(/C=C3/C(=O)Nc4cc(C)c(O)cc43)c(Cl)[nH]c2cc1C	8.89 µM	> 100	15.7	17.9	11.1 µM	3.9 µM	15.6	18.2	7.01	–	18.8	13.4	5.87	24.1	7.6	8.32 µM	17.7	–	–	–
